For one test, the target named is hGLP-1R (Homo sapiens, UniProt P43220). Nature of the test: Functional cAMP formation (HTRF) in HEK-293 clonal cells expressing hGLP-1R, 0.1% bovine casein, without or with 1.0% human serum albumin. It counts as cell-based. More on the design: expressed in transfected cells. Particulars: for Emax: percent of maximal response to GLP-1(7-36)NH2; for EC50: cAMP. Put shortly:
(§1)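 Cells were stimulated with peptide for 30 min at 37° C, then intracellular cAMP was measured by competitive HTRF (665/620 nm ratio) and converted to nM using a cAMP standard curve. Relative EC50 and Emax came from four-parameter logistic fits of percent maximal response against peptide concentration.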

For the next test, the target named is T1, hGCGR (Homo sapiens, UniProt P47871).
T1 construct: expressed in transfected cells
Nature of the test: Functional cAMP formation (HTRF) in HEK-293 clonal cells expressing hGCGR, 0.1% bovine casein, without or with 1.0% human serum albumin. Particulars: cAMP, 37° C. It counts as cell-based. Put shortly: as §1
For orientation: Changes in cAMP serve as a functional read-out for many G protein-coupled receptors.

Test [1] deals with T2, human GIP receptor (hGIPR) (Homo sapiens, UniProt P48546).
T2 construct: expressed in transfected cells; crude membranes
T2 sequence (P48546 22-466): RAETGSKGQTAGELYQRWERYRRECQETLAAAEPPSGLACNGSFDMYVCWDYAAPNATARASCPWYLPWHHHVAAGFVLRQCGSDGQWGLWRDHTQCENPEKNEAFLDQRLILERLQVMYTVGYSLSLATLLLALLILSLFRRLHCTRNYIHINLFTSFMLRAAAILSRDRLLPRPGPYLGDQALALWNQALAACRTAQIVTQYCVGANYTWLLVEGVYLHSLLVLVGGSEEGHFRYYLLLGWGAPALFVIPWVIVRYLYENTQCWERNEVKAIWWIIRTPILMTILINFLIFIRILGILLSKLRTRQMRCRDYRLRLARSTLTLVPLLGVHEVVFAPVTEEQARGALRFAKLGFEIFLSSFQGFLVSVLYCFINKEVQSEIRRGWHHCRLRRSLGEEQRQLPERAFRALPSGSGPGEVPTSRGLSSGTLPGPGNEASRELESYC
Nature of the test: [125I]-GIP binding, SPA with membranes of CHO cells expressing hGIPR.

The target in the next test is T3, hGIPR (Homo sapiens, UniProt P48546).
T3 construct: expressed in transfected cells
T3 sequence (P48546 22-466): T2 sequence (P48546 22-466)
Nature of the test: Functional cAMP formation (HTRF) in HEK-293 clonal cells expressing hGIPR, 0.1% bovine casein, without or with 1.0% human serum albumin. It counts as cell-based. Particulars: for Emax: percent of maximal response to GIP(1-42)NH2; for EC50: cAMP. Put shortly: as §1

Where [2] appears, read: HEK293, cAMP, 37° C., 0.1% bovine casein, arithmetic mean, read-out: hGLP-1R Emax, % ± SEM.
Where [3] appears, read: 37° C., 0.1% bovine casein (no human serum albumin), geometric mean, read-out: hGLP-1R EC50, nM (SEM, n).
[4] abbreviates: 0.1% bovine casein (no human serum albumin), geometric mean, read-out: hGCGR EC50, nM (SEM, n).
Where [5] appears, read: 0.1% bovine casein and 1.0% human serum albumin, geometric mean (SEM, n), read-out: hGCGR EC50, nM (SEM, n).
[6] abbreviates: human GIPR, geometric mean (SEM, n), read-out: Binding Affinity Ki, nM (SEM, n) hGIPR.
The mark [7] stands for this setting: HEK293, cAMP, 37° C., 0.1% bovine casein and 1.0% human serum albumin, read-out: hGIPR Emax, % ± SEM.
Where [8] appears, read: HEK293, cAMP, 37° C., 0.1% bovine casein, arithmetic mean, read-out: hGIPR Emax, % ± SEM.
The mark [9] stands for this setting: 37° C., 0.1% bovine casein (no human serum albumin), geometric mean, read-out: hGIPR EC50, nM (SEM, n).
Setting [10] is: 37° C., 0.1% bovine casein and 1.0% human serum albumin, geometric mean (SEM, n), read-out: hGIPR EC50, nM (SEM, n).
The mark [11] stands for this setting: 37° C., 0.1% bovine casein and 1.0% human serum albumin, geometric mean (SEM, n), read-out: hGLP-1R EC50, nM (SEM, n).

The values that follow come from patent US20230265151A1, “GIP/GLP1 CO-AGONIST COMPOUNDS” (priority 2020, published 2023).

For orientation: Emax means the maximal effect, on the per cent scale that the assay sets. A word on the EC50: it is the concentration that produces a half-maximal response. A word on the Ki: it is a measure of affinity in units of concentration, obtained from inhibition or displacement.

Structures are written as SMILES. Where two headings read alike, the source gives them in different places. A value given as a limit tells only on which side of the number the result lay.

T1 sequence (P47871 26-477): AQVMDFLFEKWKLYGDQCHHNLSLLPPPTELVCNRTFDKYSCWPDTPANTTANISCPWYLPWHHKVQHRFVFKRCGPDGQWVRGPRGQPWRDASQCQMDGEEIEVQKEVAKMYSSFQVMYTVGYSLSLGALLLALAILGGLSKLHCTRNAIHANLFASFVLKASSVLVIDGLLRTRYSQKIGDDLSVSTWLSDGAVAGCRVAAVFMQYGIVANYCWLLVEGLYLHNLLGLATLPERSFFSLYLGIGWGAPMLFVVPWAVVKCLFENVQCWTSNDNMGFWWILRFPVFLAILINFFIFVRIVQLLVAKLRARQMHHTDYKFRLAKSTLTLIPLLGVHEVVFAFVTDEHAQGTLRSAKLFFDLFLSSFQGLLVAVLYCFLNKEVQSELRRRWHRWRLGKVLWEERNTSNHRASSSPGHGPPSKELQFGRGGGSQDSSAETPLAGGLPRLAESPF
Chain of hGLP-1R (P43220 24-463): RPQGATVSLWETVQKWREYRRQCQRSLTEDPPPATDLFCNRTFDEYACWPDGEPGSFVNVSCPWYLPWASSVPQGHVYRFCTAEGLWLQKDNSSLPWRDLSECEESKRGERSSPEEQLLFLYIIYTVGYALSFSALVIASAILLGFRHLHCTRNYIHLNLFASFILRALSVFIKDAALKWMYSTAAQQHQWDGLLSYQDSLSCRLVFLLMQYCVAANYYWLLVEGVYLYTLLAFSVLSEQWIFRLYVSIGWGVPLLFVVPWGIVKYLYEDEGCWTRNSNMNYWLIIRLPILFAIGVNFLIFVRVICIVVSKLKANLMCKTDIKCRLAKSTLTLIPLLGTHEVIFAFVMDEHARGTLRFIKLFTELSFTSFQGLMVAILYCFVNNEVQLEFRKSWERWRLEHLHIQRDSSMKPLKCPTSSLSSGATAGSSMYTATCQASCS

Turning to `CCCC[C@H](NC(=O)[C@H](CC(=O)O)NC(=O)[C@H](CO)NC(=O)[C@@H](NC(=O)[C@](C)(Cc1ccccc1F)NC(=O)[C@@H](NC(=O)CNC(=O)[C@H](CCC(=O)O)NC(=O)C(C)(C)NC(=O)[C@@H](N)Cc1ccc(O)cc1)[C@@H](C)O)[C@@H](C)O)C(=O)N[C@@H](CO)C(=O)N[C@H](C(=O)N[C@@](C)(CC(C)C)C(=O)N[C@@H](CC(C)C)C(=O)N[C@@H](CC(=O)O)C(=O)N[C@@H](CCCN)C(=O)N[C@@H](CCC(N)=O)C(=O)N[C@@H](C)C(=O)N[C@@H](CCC(N)=O)C(=O)NC(C)(C)C(=O)N[C@@H](CCCN)C(=O)N[C@@H](Cc1ccccc1)C(=O)N[C@H](C(=O)N[C@@H](CCCCNC(=O)COCCOCCNC(=O)COCCOCCNC(=O)CC[C@H](NC(=O)CCCCCCCCCCCCC(=O)O)C(=O)O)C(=O)N[C@@](C)(Cc1ccc(O)cc1)C(=O)N[C@@H](CC(C)C)C(=O)N[C@H](C(=O)N[C@@H](CCCCNC(=O)COCCOCCNC(=O)COCCOCCNC(=O)CC[C@H](NC(=O)CCCCCCCCCCCCC(=O)O)C(=O)O)C(=O)NCC(=O)NCC(=O)N1CCC[C@H]1C(=O)N[C@@H](CO)C(=O)N[C@@H](CO)C(=O)NCC(=O)N[C@@H](C)C(=O)N1CCC[C@H]1C(=O)N1CCC[C@H]1C(=O)N1CCC[C@H]1C(=O)N[C@@H](CO)C(N)=O)[C@@H](C)CC)[C@@H](C)CC)[C@@H](C)CC` [Example 490], the Emax at hGLP-1R (setting [2]) is 115%; on hGIPR (setting [7]) it was 97.1%; at hGIPR (setting [8]), 110%. For the same compound, the EC50 on hGLP-1R (setting [3]) was 0.143 nM; at hGCGR (setting [4]), greater than 9950 nM; on hGCGR (setting [5]) it was greater than 9950 nM; at hGIPR (setting [9]), 0.0122 nM; at hGIPR (setting [10]) it was 0.976 nM. Also, in test [1] (setting [6]), the Ki was found to be 0.0288 nM.
Regarding `CC[C@H](C)[C@H](NC(=O)[C@H](CC(C)C)NC(=O)[C@](C)(Cc1ccc(O)cc1)NC(=O)[C@H](CCCCNC(=O)COCCOCCNC(=O)COCCOCCNC(=O)COCCOCCNC(=O)CC[C@H](NC(=O)CCCCCCCCCCCCC(=O)O)C(=O)O)NC(=O)[C@@H](NC(=O)[C@H](Cc1ccccc1)NC(=O)[C@H](CCCN)NC(=O)C(C)(C)NC(=O)[C@H](CCC(N)=O)NC(=O)[C@H](C)NC(=O)[C@H](CCC(N)=O)NC(=O)[C@H](CCCN)NC(=O)[C@H](CC(=O)O)NC(=O)[C@H](CC(C)C)NC(=O)[C@](C)(CC(C)C)NC(=O)[C@@H](NC(=O)C(C)(C)NC(=O)[C@H](Cc1ccncc1)NC(=O)[C@H](CC(=O)O)NC(=O)[C@H](CO)NC(=O)[C@@H](NC(=O)[C@](C)(Cc1ccccc1F)NC(=O)[C@@H](NC(=O)CNC(=O)[C@H](CCC(=O)O)NC(=O)C(C)(C)NC(=O)[C@@H](N)Cc1ccc(O)cc1)[C@@H](C)O)[C@@H](C)O)[C@@H](C)CC)[C@@H](C)CC)C(=O)N[C@@H](CCCCNC(=O)COCCOCCNC(=O)COCCOCCNC(=O)COCCOCCNC(=O)CC[C@H](NC(=O)CCCCCCCCCCCCC(=O)O)C(=O)O)C(=O)NCC(=O)NCC(=O)N1CCC[C@H]1C(=O)N[C@@H](CO)C(=O)N[C@@H](CO)C(=O)NCC(=O)N[C@@H](C)C(=O)N1CCC[C@H]1C(=O)N1CCC[C@H]1C(=O)N1CCC[C@H]1C(=O)N[C@@H](CO)C(N)=O` [Example 476], the Emax amounted to 114% on hGLP-1R (setting [2]) and 81.8% at hGIPR (setting [7]). Further, the EC50 on hGLP-1R (setting [3]) was 0.117 nM; on hGLP-1R (setting [11]), 1.5 nM; on hGCGR (setting [4]), greater than 9950 nM; at hGCGR (setting [5]), greater than 9950 nM; at hGIPR (setting [9]), 0.00886 nM; on hGIPR (setting [10]), 0.154 nM. In test [1] (setting [6]), the Ki is 0.0351 nM.
`CC[C@H](C)[C@H](NC(=O)[C@H](CC(C)C)NC(=O)[C@](C)(Cc1ccc(O)cc1)NC(=O)[C@H](CCCCNC(=O)CCOCCOCCOCCOCCOCCOCCNC(=O)CC[C@H](NC(=O)CCCCCCCCCOc1ccc(C(=O)O)cc1)C(=O)O)NC(=O)[C@@H](NC(=O)[C@H](Cc1ccccc1)NC(=O)[C@H](CCCN)NC(=O)C(C)(C)NC(=O)[C@H](CCC(N)=O)NC(=O)[C@H](C)NC(=O)[C@H](CCC(N)=O)NC(=O)[C@H](CCCN)NC(=O)[C@H](CC(=O)O)NC(=O)[C@H](CC(C)C)NC(=O)[C@](C)(CC(C)C)NC(=O)[C@@H](NC(=O)C(C)(C)NC(=O)[C@H](Cc1ccncc1)NC(=O)[C@H](CC(=O)O)NC(=O)[C@H](CO)NC(=O)[C@@H](NC(=O)[C@](C)(Cc1ccccc1F)NC(=O)[C@@H](NC(=O)CNC(=O)[C@H](CCC(=O)O)NC(=O)C(C)(C)NC(=O)[C@@H](N)Cc1ccc(O)cc1)[C@@H](C)O)[C@@H](C)O)[C@@H](C)CC)[C@@H](C)CC)C(=O)N[C@@H](CCCCNC(=O)CCOCCOCCOCCOCCOCCOCCNC(=O)CC[C@H](NC(=O)CCCCCCCCCOc1ccc(C(=O)O)cc1)C(=O)O)C(=O)NCC(=O)NCC(=O)N1CCC[C@H]1C(=O)N[C@@H](CO)C(=O)N[C@@H](CO)C(=O)NCC(=O)N[C@@H](C)C(=O)N1CCC[C@H]1C(=O)N1CCC[C@H]1C(=O)N1CCC[C@H]1C(=O)N[C@@H](CO)C(N)=O` [Example 468]: the Emax on hGLP-1R (HEK293, read-out: hGLP-1R Emax, % ± SEM, cAMP, 37° C., 0.1% bovine casein, arithmetic mean) turned out to be 109%; on hGIPR (HEK293, read-out: hGIPR Emax, % ± SEM, cAMP, 37° C., 0.1% bovine casein and 1.0% human serum albumin), 85.9%; on hGIPR (HEK293, read-out: hGIPR Emax, % ± SEM, cAMP, 37° C., 0.1% bovine casein, arithmetic mean) it was 97.1%. Besides, the EC50 on hGLP-1R (hGLP-1R EC50, nM (SEM, n), 37° C., 0.1% bovine casein (no human serum albumin), geometric mean) was 0.168 nM; on hGCGR (hGCGR EC50, nM (SEM, n), 0.1% bovine casein (no human serum albumin), geometric mean), greater than 10100 nM; on hGCGR (hGCGR EC50, nM (SEM, n), 0.1% bovine casein and 1.0% human serum albumin, geometric mean (SEM, n)), greater than 10100 nM; on hGIPR (hGIPR EC50, nM (SEM, n), 37° C., 0.1% bovine casein (no human serum albumin), geometric mean), 0.00991 nM. Besides, the Ki in test [1] worked out at 0.0291 nM.
For the compound `CCCCCCCCCCCC(=O)N[C@@H](CCC(=O)NCCOCCOCC(=O)NCCOCCOCC(=O)NCCCC[C@H](NC(=O)[C@H](CO)NC(=O)[C@@H]1CCCN1C(=O)[C@@H]1CCCN1C(=O)[C@@H]1CCCN1C(=O)[C@H](C)NC(=O)CNC(=O)[C@H](CO)NC(=O)[C@H](CO)NC(=O)[C@@H]1CCCN1C(=O)CNC(=O)CNC(=O)[C@H](CCC(=O)O)NC(=O)[C@@H](NC(=O)[C@H](CC(C)C)NC(=O)[C@](C)(Cc1ccc(O)cc1)NC(=O)[C@@H](CCC(=O)O)NC(=O)[C@@H](NC(=O)[C@H](Cc1ccccc1)NC(=O)[C@H](CCCN)NC(=O)C(C)(C)NC(=O)[C@H](CCC(N)=O)NC(=O)[C@H](C)NC(=O)[C@H](CCCCNC(=O)COCCOCCNC(=O)COCCOCCNC(=O)CC[C@H](NC(=O)CCCCCCCCCCC)C(=O)O)NC(=O)[C@H](CCCN)NC(=O)[C@H](CC(=O)O)NC(=O)[C@H](CC(C)C)NC(=O)[C@](C)(CC(C)C)NC(=O)[C@@H](NC(=O)C(C)(C)NC(=O)[C@H](Cc1ccncc1)NC(=O)[C@H](CC(=O)O)NC(=O)[C@H](CO)NC(=O)[C@@H](NC(=O)[C@](C)(Cc1ccccc1F)NC(=O)[C@@H](NC(=O)CNC(=O)[C@H](CCC(=O)O)NC(=O)C(C)(C)NC(=O)[C@@H](N)Cc1ccc(O)cc1)[C@@H](C)O)[C@@H](C)O)[C@@H](C)CC)[C@@H](C)CC)[C@@H](C)CC)C(N)=O)C(=O)O` [Example 418], the Emax at hGLP-1R (HEK293, cAMP, 37° C., 0.1% bovine casein and 1.0% human serum albumin, read-out: hGLP-1R Emax, % ± SEM) was determined as 98.8%; on hGIPR (setting [7]), 87.2%; at hGIPR (setting [8]), 91%. The EC50 was 0.0603 nM at hGLP-1R (setting [3]); 1.72 nM at hGLP-1R (setting [11]); greater than 9950 nM on hGCGR (setting [4]); greater than 9950 nM on hGCGR (setting [5]); 0.00599 nM at hGIPR (setting [9]); 0.126 nM on hGIPR (setting [10]). Moreover, the Ki in test [1] (setting [6]) worked out at 0.0174 nM.
